Assay results from patent US12310944B2 (priority 2019, dated 2025).
Like-named read-outs stand apart in the source and are kept apart here.

How the values were obtained:
[1] = molecular target: T1, eqBuChE (BuChE, E.C.3.1.1.8, selected from horse serum) (Equus caballus, UniProt P81908); assay: Cholinesterase inhibitory activity (DTNB/BTC), eqBuChE; assay type: biochemical
T1 construct: BuChE (E.C.3.1.1.8, selected from horse serum); purchased Sigma; host or cells: horse serum
Description: Determination of Cholinesterase Inhibitory Activity:
Drugs and reagents: Test compounds, AChE (E.C.3.1.1.7, Type VI-S, selected from electric eel), BuChE (E.C.3.1.1.8, selected from horse serum), 5,5′-dithiobis(2-nitrobenzoic acid) (DTNB), acetylthiocholine (ATC) iodide and butyrylthiocholine (BTC) iodide were all purchased from Sigma; the positive control tacrine hydrochloride (9-amino-1,2,3,4-tetrahydroacridine hydrochloride hydrate) was purchased from BioTrend.
(§1) Instrument: THERMO Varioskan Flash full-wavelength multifunctional microplate reader.
(1) Formulation of buffer: 13.6 g of potassium dihydrogen phosphate was dissolved in 1 L of water, and pH was adjusted with potassium hydroxide to reach pH=8±0.1. The solution was stored at 4° C. for later use.
(2) Formulation of 0.01 M DTNB solution: 0.396 g of DTNB and 0.15 g of sodium bicarbonate were dissolved in 100 mL of water to prepare a 0.01 M DTNB solution, which was stored at −30° C. for later use.
(3) Formulation of 0.075 M ATC and BTC solutions: 0.217 g of ATC was dissolved in 10 mL of water to prepare a 0.075 M ATC solution, which was stored at −30° C. for later use; 0.237 g of BTC was dissolved in 10 mL of water to prepare a 0.075 M BTC solution, which was stored at −30° C. for later use.
(4) Formulation of AChE and BuChE solutions: 5,000 units of AChE were dissolved in 1 mL of 1% gel solution, and then diluted to 100 mL with water to prepare a AChE solution with a concentration of 5 units/mL, which was stored at −30° C. for later use; 5,000 units of BuChE were dissolved in 1 mL of 1% gel solution, and then diluted to 100 mL with water to prepare a BuChE solution with a concentration of 5 units/mL, which was stored at −30° C. for later use.
(5) Formulation of test substance solution: The test compound was dissolved in ethanol to obtain a solution with a concentration of 10^−3 M (ethanol would not affect the test results), and then diluted with water to prepare solutions with concentrations of […], 10^−5, 10^−6, 10^−7, 10^−8, 10^−9, and 10^−10 M, respectively.
Before the start of the experiment, all the solutions as used were warmed to room temperature, and the AChE and BuChE solutions were diluted 1-fold with water to prepare an enzyme solution with a concentration of 2.5 units/mL. The background UV absorbance was measured with a blank buffer (3 mL) as a subtraction value. Firstly, 100 μL of test compound solution, 100 μL of DTNB solution, and 100 μL of enzyme solution were added to 3 mL of buffer. After adding 20 μL of ATC or BTC solution to trigger the reaction, the time was recorded immediately and the test solution was mixted quickly and uniformly at the same time. After 2 minutes, the UV absorbance was measured at a wavelength of […]. The blank control group was measured with an equal volume of water instead of the test substance solution. All tests were performed three times in parallel. The UV absorption value of the blank control group was taken as 100%, the absorbance (OD value) of the test compound at each concentration was recorded, and GraphPad Prism™ (GraphPad Software, San Diego, CA, USA) software was used to analyze the results in a non-linear regression analysis model to calculate the corresponding IC50 values, as shown in Table 1.

hBuChE = hBuChE (Homo sapiens, UniProt P06276); assay: Cholinesterase inhibitory activity (DTNB/BTC), hBuChE; assay type: biochemical; conditions: mean ± SEM
PC-12 neural cell line = assay: Toxicity test in PC-12 nerve cell (MTT); assay type: cell-based; conditions: PC-12 cells; for SR(%) cell survival rate, 20 μM: 20 μM compound for 24 h; for SR(%) cell survival rate, 50 μM: 50 μM compound for 24 h
Procedure: Toxicity Test in PC-12 Nerve Cell:
Drugs and reagents: Test compounds, DMEM medium (01-050-1A) purchased from Biological Industries, FBS fetal bovine serum (04-001-1A) purchased from Biological Industries, MTT thiazolyl blue reagent (KGT525500) purchased from KeyGEN BioTECH.
as §1
About 3×10^3 PC-12 cells were evenly mixed in 0.1 mL of DMEM medium containing 10% FBS, and plated on a 96-well bottom plate, and incubated overnight at 37° C. in an environment containing 5% CO2. The 20 μM and 50 μM compounds diluted in 0.1 mL of DMEM medium were treated on the cells for 24 hours. Then MTT reagent was added to the well plate, and the plate was incubated at 37° C. for 2 to 4 hours. The color reaction was measured at 492 nm using a spectrophotometer (Thermo, multiskan FC).

[2] = eqBuChE, mean ± SEM, three parallel tests
[3] = read-out: IC50 (nM) ± SEM eqBuChE

T1 sequence (P81908 whole entry): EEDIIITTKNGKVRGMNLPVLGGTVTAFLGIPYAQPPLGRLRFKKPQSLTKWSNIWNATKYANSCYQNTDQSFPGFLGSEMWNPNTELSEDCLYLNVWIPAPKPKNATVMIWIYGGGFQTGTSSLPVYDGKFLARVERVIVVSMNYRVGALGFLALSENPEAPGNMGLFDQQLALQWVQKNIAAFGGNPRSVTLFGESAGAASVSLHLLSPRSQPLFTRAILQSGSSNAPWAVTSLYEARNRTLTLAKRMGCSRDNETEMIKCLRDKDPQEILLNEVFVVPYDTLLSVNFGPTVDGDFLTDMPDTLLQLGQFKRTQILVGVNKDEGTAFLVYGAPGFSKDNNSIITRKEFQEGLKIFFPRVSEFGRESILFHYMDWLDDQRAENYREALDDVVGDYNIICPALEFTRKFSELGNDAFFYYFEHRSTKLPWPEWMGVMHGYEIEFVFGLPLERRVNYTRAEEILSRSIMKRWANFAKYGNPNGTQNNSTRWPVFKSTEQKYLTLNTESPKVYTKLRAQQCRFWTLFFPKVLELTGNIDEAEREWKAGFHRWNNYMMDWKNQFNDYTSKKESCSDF

Row | SMILES | IC50 [1, 2] [nM] | IC50 (hBuChE) [nM] | SR(%) cell survival rate, 20 μM (PC-12 neural cell line) [%] | SR(%) cell survival rate, 50 μM (PC-12 neural cell line) [%] | IC50 [1, 3] [nM] | inhibition at 10 µM ([1]; read-out: inhibition rate of the compound on the target at a concentration of 10 μM (eqBuChE)) [%]
1 | CCN(CC)Cc1ccccc1CNC(=O)c1cccc(NC(=O)c2cccs2)c1 [Compound 1, N-(3-((2-((diethylamino)methyl)benzyl)carbamoyl)phenyl)thiophene-2-carboxamide] | 0.13 ± 0.01 | 0.42 ± 0.07 | 97.36 | 84.34 |  | 
2 | CN(C)Cc1ccccc1NC(=O)c1cccc(NC(=O)c2cccs2)c1 [Compound 2, N-(3-((2-((dimethylamino)methyl)phenyl)carbamoyl)phenyl)thiophene-2-carboxamide] | 1910 ± 983 |  | 94.30 | 91.45 |  | 
3 | CCN(CC)Cc1ccccc1NC(=O)c1cccc(NC(=O)c2cccs2)c1 [Compound 3, N-(3-((2-((diethylamino)methyl)phenyl)carbamoyl)phenyl)thiophene-2-carboxamide] | 481 ± 110 |  | 95.23 | 89.64 |  | 
4 | CCCN(CCC)Cc1ccccc1NC(=O)c1cccc(NC(=O)c2cccs2)c1 [Compound 4, N-(3-((2-((dipropylamino)methyl)phenyl)carbamoyl)phenyl)thiophene-2-carboxamide] |  |  | 87.24 | 79.48 | 122 ± 285 | 
5 | CCN(CC)Cc1ccccc1CNC(=O)c1cccc(NC(=O)c2ccc[nH]2)c1 [Compound 5, N-(3-((2-((diethylamino)methyl)benzyl)carbamoyl)phenyl)-pyrrole-2-carboxamide] |  | 2.99 ± 0.67 | 97.53 | 92.47 | 0.87 ± 0.03 | 
6 | CCN(CC)Cc1ccccc1CNC(=O)c1cccc(NC(=O)c2ccco2)c1 [Compound 6, N-(3-((2-((diethylamino)methyl)benzyl)carbamoyl)phenyl)furan-2-carboxamide] | 0.79 ± 0.09 | 0.63 ± 0.13 | 95.37 | 81.46 |  | 
7 | CCN(CC)Cc1ccccc1CNC(=O)c1cccc(NC(=O)c2ccccn2)c1 [Compound 7, N-(3-((2-((diethylamino)methyl)benzyl)carbamoyl)phenyl)-pyridineamide] |  | 0.78 ± 0.63 | 92.36 | 75.46 | 0.34 ± 0.02 | 
8 | CCN(CC)Cc1ccccc1CNC(=O)c1cccc(NC(=O)c2nccs2)c1 [Compound 8, N-(3-((2-((diethylamino)methyl)benzyl)carbamoyl)phenyl)-thiazole-2-carboxamide] |  | 1.88 ± 0.52 | 93.57 | 89.42 | 0.75 ± 0.14 | 
9 | CCN(CC)Cc1ccccc1CNC(=O)c1cccc(NC(=O)c2ncc[nH]2)c1 [Compound 9, N-(3-((2-((diethylamino)methyl)benzyl)carbamoyl)phenyl)-imidazole-2-carboxamide] |  | 1.91 ± 0.24 | 80.36 | 70.74 | 0.52 ± 0.1 | 
10 | CCN(CC)Cc1ccccc1CNC(=O)c1cccc(NC(=O)C2CCCCC2)c1 [Compound 10, 3-(cyclohexanecarboxamido)-N-(2-((diethylamino)methyl)benzyl)benzamide] |  |  | 90.23 | 83.22 | 122 ± 15.4 | 
11 | CCN(CC)Cc1ccccc1CNC(=O)c1cccc(NC(=O)c2ccccc2)c1 [Compound 11, 3-benzamido-N-(2-((diethylamino)methyl)benzyl)benzamide] |  | 0.99 ± 0.18 | 96.30 | 83.4 | 0.48 ± 0.07 | 
12 | CCN(CC)Cc1ccccc1CNC(=O)c1cccc(NC(=O)c2ccc(O)cc2)c1 [Compound 12, N-(2-((diethylamino)methyl)benzyl)-3-(4-hydroxybenzamido)benzamide] |  | 2.45 ± 0.37 | 91.46 | 89.64 | 0.79 ± 0.19 | 
13 | CCN(CC)Cc1ccccc1CNC(=O)c1cccc(NC(=O)c2ccc(C(=O)O)cc2)c1 [Compound 13, 4-((3-((2-((diethylamino)methyl)benzyl)carbamoyl)phenyl)carbamoyl)benzoic acid] |  | 3.4 ± 0.31 | 91.46 | 75.25 | 0.76 ± 0.09 | 
14 | CCN(CC)Cc1ccccc1CNC(=O)c1cccc(NC(=O)c2ccc(C=O)cc2)c1 [Compound 14, N-(2-((diethylamino)methyl)benzyl)-3-(4-formanilide)benzamide] |  | 2.09 ± 0.99 | 86.34 | 81.34 | 0.89 ± 0.63 | 
15 | CCN(CC)Cc1ccccc1CNC(=O)c1cccc(NC(=O)c2ccc(F)cc2)c1 [Compound 15, N-(2-((diethylamino)methyl)benzyl)-3-(4-fluorobenzamido)benzamide] | 0.15 ± 0.06 | 1.44 ± 1.66 | 93.57 | 84.35 |  | 
16 | CCN(CC)Cc1ccccc1CNC(=O)c1cccc(NC(=O)c2ccc(F)c(F)c2)c1 [Compound 16] |  | 0.57 ± 0.1 | 95.72 | 89.53 | 0.3 ± 0.07 | 
17 | CCN(CC)Cc1ccccc1CNC(=O)c1cccc(NC(=O)c2cccc(F)c2)c1 [Compound 17, N-(2-((diethylamino)methyl)benzyl)-3-(3-fluorobenzamido)benzamide] | 4.55 ± 0.74 | 25.2 ± 19.1 | 98.40 | 89.75 |  | 
18 | CCN(CC)Cc1ccccc1CNC(=O)c1cccc(NC(=O)c2ccccc2F)c1 [Compound 18, N-(3-((2-((diethylamino)methyl)benzyl)carbamoyl)phenyl)-2-fluorobenzamide] |  | 17.4 ± 1.98 | 80.26 | 73.56 | 3.5 ± 1.1 | 
19 | CCN(CC)Cc1ccccc1CNC(=O)c1cccc(NC(=O)c2ccc(Cl)cc2)c1 [Compound 19, 3-(4-chlorobenzamido)-N-(2-((diethylamino)methyl)benzyl)benzamide] |  | 0.83 ± 0.39 | 90.43 | 79.24 | 0.34 ± 0.21 | 
20 | CCN(CC)Cc1ccccc1CNC(=O)c1cccc(NC(=O)c2ccc(Br)cc2)c1 [Compound 20, 3-(4-bromobenzamido)-N-(2-((diethylamino)methyl)benzyl)benzamide] |  | 1.91 ± 0.59 | 94.00 | 85.21 | 0.98 ± 0.62 | 
21 | O=C(NCc1ccccc1)c1cccc(NC(=O)c2cccs2)c1 [Compound 36] |  |  | 89.57 | 77.42 |  | 27.2
